{
  "source": "patent US20200316072A1",
  "about": "“COMPOUNDS FOR USE IN REGULATING FOLLICLE MATURATION” (AARHUS UNIVERSITET, priority 2017, published 2020)",
  "origin": "cited, not measured here",
  "tested_on": "IGF/Akt/mTOR signaling pathway",
  "conditions": "stated as prior knowledge on the DPP4 inhibitor; test system not given",
  "data": [
    {"smiles": "CC#CCn1c(N2CCC[C@@H](N)C2)nc2c1c(=O)n(Cc1nc(C)c3ccccc3n1)c(=O)n2C", "note": "[Linagliptin, 8-[(3R)-3-aminopiperidin-1-yl]-7-but-2-ynyl-3-methyl-1-[(4-methylquinazolin-2-yl)methyl]purine-2,6-dione]", "values": [
      {"measurement": "phosphorylated protein expression of IGF/Akt/mTOR signaling pathway", "result": "alleviated"}
    ]}
  ]
}
